Test results taken from US20250059499A1, “CELL-SURFACE ENGINEERING COMPOSITIONS AND METHODS FOR THE PREVENTION OF IMMUNE REJECTION” (THE UNIVERSITY OF BRITISH COLUMBIA, priority 2021, published 2025).
No end group written: not given here.

Legend:
Ea.hy926 cells [1] = assay: Ammonia generation assay for gtTGase ligation on endothelial cells; type: cell-based; settings: 4° C.; for NH3 production with TGase isoforms: gtTGase and mTGase, 30 minutes
Method: (§1) The solutions were mixed thoroughly and incubated at 4° C. for 30 minutes under static conditions. The cell supernatant was collected and the cells were washed three times with PBS and subjected to further analysis. The assessment of polymer attachment to endothelial cells are assessed by ammonia assay.
The extent of gtTGase ligation was assessed using an ammonia assay kit (Sigma™, MAK310) and used according to the manufacturer's protocols. This kit is used for the quantitative determination of ammonia (NH3), a side product in the gtTGase reaction.^6 This assay is based on the o-phthalaldehyde method in which the reagent reacts with NH3 producing a fluorescent product (λex=360 nm/λm=450 nm), proportional to the NH3 concentration in the sample.^7,8 Briefly, PBS was supplemented with 5 mM CaCl2 and 3 mM dithiothreitol (DTT). In a 96 well plate, containing either endothelial cells or glycine ethyl ether (GEE, amine donor), Q-tagged polymer (acyl donor) and guinea pig liver transglutaminase (gtTGase, Sigma™ T5398) were added to the PBS solution to a final concentration of 5 mM, 0.5 mM and 0.2 U/mL respectively (Vf=100 μL). The reaction was thoroughly mixed and rocked gently at 4° C. for 30 minutes. The sample was diluted four-fold and a 10 μL aliquot of the reaction mixture was then transferred to a tube containing 90 μL complete ammonia assay reagent and mixed thoroughly. The solution was left to react for 15 minutes at ambient temperature in the dark. The fluorescence intensity was measured at λex=360 nm/λem=450 nm using a spectrophotometer and the quantity of ammonia in solution was calculated according to Eq. 1: […]
EA.hy 926 cells plated for 15 days were washed twice with warm PBS before introducing a reaction cocktail containing 0.5 mM polymer, 5 mM CaCl2, 3 mM DTT and 0.2 U/mL transglutaminase made in DMEM media solution without phenol red. The reaction was incubated at 4° C. for 30 minutes. Then the supernatant was removed and subjected to ammonia generation assay and the cells were washed twice with warm PBS to remove unreacted polymers.

Ea.hy926 cells [2] = assay: Cell viability (MTS assay) of modified cells; type: cell-based
Method: (§2) Cell viability measurements were performed on modified cells after washing with warm PBS twice. Then, the cells were subjected to MTS (3-(4,5-dimethylthiazol-2-yl)-5-(3-carboxymethoxyphenyl)-2-(4-sulfophenyl)-2H-tetrazolium) assay kit (Cell Titer 96 Aqueous One solution Cell Proliferation Assay™) and by following the manufacturer's protocol. All recorded values were normalized to healthy cells untreated with polymers. Platelet activation was performed by PE-labelled anti human […] stain was prepared by diluting 20 times using plasma. An aliquot of each platelet sample was labelled using the diluted PE-labelled anti-human […] solution (1:10 dilution) for 30 minutes at room temperature. Platelets incubated in 0.1 mM TRAP were used as positive control and platelets incubated in PE-labelled IgG were used for non-specific binding control. Each sample was analyzed for 10000 platelet events. Each experiment was replicated using a minimum of 3 donors and each donor was performed in triplicates. For human pancreatic islets, live/dead imaging assay was used for cell viability and DTZ detection assay was used to determine insulin-producing beta cells from mixed cell cultures.

human pancreatic islets = assay: Compatibility of cell surface engineering on pancreatic islets (LIVE/DEAD, DTZ); type: cell-based; settings: 0.5 mM polymer, room temperature, 30 minutes
Method: FIG. 57: Compatibility of cell surface engineering on human pancreatic islet surfaces using gtTGase. Human pancreatic islets were incubated with 0.5 mM Q-tagged polymer, 0.2 U ml-1 gtTGase, 3 mM GSH and 5 mM CaCl2 at room temperature for 30 minutes. Cell viability was assessed using a LIVE/DEAD stain assay and insulin producing activity was assessed by DTZ detection assay.
as §2, with “For human pancreatic islets, live/dead imaging assay was used for cell viability and DTZ detection assay was used to determine insulin-producing beta cells from mixed cell cultures.” left out

[3] = test system: IL-2 activated PBMCs on TNF-α activated Ea.hy926 monolayers; assay: PBMC adhesion to endothelial surfaces; type: cell-based, human
Method: Confluent Ea.hy926 monolayers seeded in a 48 well plate (30,000 cells/well) were activated with TNF-α (2000 U/mL, 3 hours). To obtain PBMCs, EDTA anticoagulated blood from healthy donors was subjected to ficoll density gradient centrifugation Histopaque™-1077 (Sigma Aldrich™). PBMCs were cultured for 24 h in RPMI-1640 containing 10% FBS (v/v), 1000 U/mL recombinant human IL-2 (Cedarlane™)^11 and 1% P/S. Prior to fluorescent labelling, cultured PBMCs were tested for absence of platelets by labelling an aliquot of cells with FITC-labelled anti-human […] (1:200 Beckman Coulter™) and analyzed by flow cytometry (CytoFLEX™, Beckman Coulter™). PBMCs containing <1% platelets were implemented for further study. The PBMC composition was also measured using a hematological analyzer (XN-550™ automated hematology analyzer, Sysmex Canada Inc.™). Following IL-2 treatment the typical composition of the PBMCs were ˜80% lymphocytes, 5% immature granulocytes, 2% basophils and 13% monocytes. […] PMBC adhesion was quantified by lysing the cells with RIPA buffer, spinning at 15,000 g to remove cell debris and measuring the fluorescent intensity of the CMFDA Dye in the lysate (λex/λem=492/517 nm using a plate reader (Spectramax3™, Molecular Devices™).

HMEC-1 cell monolayers = assay: Transendothelial protein passage (FITC-labelled BSA); type: cell-based; settings: TNF-α 2000 U/mL, 3 hours; 0.5 mM polymer
[4] = test system: BALB/c aortic allograft in C57/BL/6 recipient; assay: Serum cytokine array after aortic interposition grafting; type: in vivo, mouse; settings: 2 days and 15 days post-transplant, 0.5 mM LPGS-Q
Method: To assess the immune modulatory effect of enzymatic polymer grafting, an antibody array kit based on a sandwich ELISA principle (Proteome Profiler™, Panel A; R&D Systems™) was used to screen the cytokine and chemokine expression level in sera of animals according to the manufacturer's protocol. Relative expression of 40 murine cytokines and chemokines captured by corresponding antibodies spotted on a nitro-cellulose membrane was determined.
The antibodies for the following cytokines were spotted on the membrane: BLC, C5a, G-CSF, GM-CSF, I-309, Eotaxin, sICAM-1, IFN-g, IL-1a, IL-1b, IL-1ra, IL-2, IL-3, IL-4, IL-5, IL-6, IL-7, IL-10, IL-13, IL-12 p70, IL-16, IL-17 IL-23, IL-27, CXCL10 (IP-10), I-TAC, KC, M-CSF, CCL2 (MCP-1), CCL12 (MCP-5), MIG, CCL3 (MIP-1a), CCL4 (MIP-1b), CXCL2 (MIP-2), CCL5 (RANTES), SDF-1, TARC, TIMP-1, TNF-α, TREM-1. […] Following the blocking step for 1 h at 4° C., a mixture of detection antibody cocktail and 100 μL of serum sample was incubated overnight at 4° C. with the membrane. Captured proteins were labeled with a streptavidin-functionalized IR-Dye (IRDye 680RD Streptavidin; LI-COR) (1:20,000 dilution in 10% bovine serum albumin, 30 min at RT) and scanned using a LI-COR Odyssey Infrared Imaging System™. The software ImageJ™ (Version 1.52s) was used to determine the integrated density of the spots on the array images after background subtraction. […]

EA.hy 926 monolayers = assay: PMS-induced glycocalyx shedding (WGA stain, flow cytometry); type: cell-based; settings: compared to non-sulfated counterparts
Method: EA.hy 926 cells were grown to confluency. Media was replaced, washed with DPBS and incubated with […] NADH, […] PMS (unless otherwise noted) and the indicated concentration of polymer; with PMS being last to be added. […] The cells were then washed extensively, stained using WGA ([…]) for 15 minutes and harvested to be analyzed using flow cytometry. Neuraminidase enzyme was used as a positive control to shed the glycocalyx.

[5] = test system: TNF-α activated Ea.hy926 cells co-cultured with IL-2 activated PBMCs; assay: PBMC-mediated cytotoxicity (LDH assay); settings: polymer ligated to cell surface
Method: EA.hy 926 monolayers were activated using TNF-α and PBMCs were activated using IL-2 as described in PBMC adhesion experiments. Following activation, PBMC was collected and resuspended in DMEM (Phenol free, 5% FBS, pen/strep). PBMCs were then added to activated EA.hy 926 monolayers (modified and unmodified) to a final concentration of 0.15×10^6 cells/mL and left to incubate at 37° C. and 5% CO2 for 18 hour. After treatment, the supernatant was collected and cell debris was removed through centrifugation. LDH content was measured using LDC cytotoxicity assay (Biovision Inc.™). Cytotoxicity was calculated using the equation below;
where, LDHsample is the amount of LDH released from the sample, LDHPBMC is the amount of LDH released from PBMC samples not subjected to EA.hy 926 monolayers, LDHalive is the amount of LDH released from EA.hy 926 monolayers not subjected to PBMCs, and LDHdead is the amount of LDH released of EA.hy926 monolayers treated with RIPA buffer for 10 minutes at room temperature.

platelets = assay: Platelet activation (CD62, flow cytometry); type: cell-based, human; settings: 4° C.
Method: as §1
as §2, with “For human pancreatic islets, live/dead imaging assay was used for cell viability and DTZ detection assay was used to determine insulin-producing beta cells from mixed cell cultures.” left out

GQQQLGGGGG-PEG: Q-tagged PEG polymer used to compare TGase isoforms (also: conjugated to PEG, site not given here) [reference compound]
NH3 production with TGase isoforms (Ea.hy926 cells [1]): favourable results | cell viability with TGase isoforms (Ea.hy926 cells [2]): favourable results

Linear polyglycerol sulfate glutamine [LPGS-Q]
cell viability and insulin producing activity (human pancreatic islets): still produce viable cells | NH3 production (surface ligation efficiency) (Ea.hy926 cells [1]; 0.5 mM polymer, gtTGase, 30 min): higher ammonia production than its non-sulfated counterparts | PBMC adhesion, in words [3]: evading recognition and subsequent adhesion | cell metabolic activity after bioconjugation (Ea.hy926 cells [2]): without affecting cell metabolic activity | cell viability under oxidative stress (Ea.hy926 cells [2]; cells grown 15 days, superoxide radicals): rescue of the cells viability | permeability of the monolayer after TNF-α activation (HMEC-1 cell monolayers): reduce non-specific macromolecule passage | cytokine profile of sera of recipient mice [4]: beneficial anti-inflammatory properties post-transplantation | retention of the glycocalyx structure after exposure to superoxide anions (EA.hy 926 monolayers): significantly larger retention of the glycocalyx structure | PBMC-mediated endothelial cell death, in words [5]: reducing PBMC-mediated cytotoxicity | platelet activation (CD62 surface markers) (platelets): did not induce platelet activation

WLAQRPH-PEG: Q-tagged PEG polymer used to compare TGase isoforms (also: conjugated to PEG, site not given here) [reference compound]
NH3 production with TGase isoforms (Ea.hy926 cells [1]): favourable results | cell viability with TGase isoforms (Ea.hy926 cells [2]): favourable results
